In patent publication US8513161B2, “Enhancement of plant growth” (Valent Biosciences Corporation, priority 2007, dated 2013):
Where a name gives a salt, the structure may show the parent alone.

Tested on: cotton
Experiment: Pouch assay of cotton after PESA salt and clothianidin seed treatments
Type: in vivo
Conditions: seed treatment; for shoot length of cotton: control 3.7; for root length of cotton: control 9.6
Experimental: Seed was sieved with a screen of hole size appropriate to remove broken seeds and small trash. Cracked or otherwise damaged seeds were removed. The seed was well mixed, and 50 g samples were weighed into small plastic trays. Seed treatment slurries were made by adding measured amounts of the active ingredients to sufficient water to bring them up to a standard volume, typically 2 ml. A fungicide (Maxim XL; Syngenta Agricultural Products, Greensboro, N.C.), a polymeric binder (CF-Clear; Becker-Underwood, Ames, Iowa), and a colorant (Color Coat Red; Becker-Underwood, Ames, Iowa) were also included in the slurry at label rates. A small aliquot of this slurry was applied to the seed using the Hege 11 coater (Wintersteiger, Salt Lake City, Utah) with a six-inch bowl. The slurry was deposited drop-wise on the spinning disk atomizer using a syringe.
Seeds were placed in germination pouches consisting of germination paper hydrated with sterile water that was an insert in a gas-permeable 16×14 cm plastic pouch (CYG Pouch; Mega International, St. Paul, Minn.). In these examples, in pouch solution evaluation, clothianidin and PESA sodium salt were added to the sterile water in the pouch. Alternatively, imidacloprid or dinotefuran and PESA sodium salt were added to the sterile water in the pouch. The pouches were arranged in a completely randomized block design in growth racks and placed in 19-liter polycarbonate food storage containers (Rubbermaid Commercial Products, Winchester, Va.). The sealed containers were held in an upright growth cabinet maintained at 25 C with a 12 hour light: 12 hour dark photoperiod. After 6 days, the containers were removed from the growth cabinet, and the lengths of the roots and shoot were measured.

[1] = PESA salt 10 g/100 pounds of seed alone
[2] = PESA salt 25 g/100 pounds of seed alone

## O=C(O)CCC(=O)NCCc1ccccc1 [PESA salt]
Table 2
  effect on cotton shoot length: increased cotton shoot length
Conclusion from Table 1
  safening of cotton: safened cotton against clothianidin-induced root growth inhibition
[1]
  shoot length of cotton: 4.3 cm
  root length of cotton: 8.8 cm
[2]
  shoot length of cotton: 4.3 cm
  root length of cotton: 10.6 cm
